Laboratory results as given in patent US20090048182A1, “Cosmetic Use of at Least One Natural Ac-N-Ser-Asp-Lys-Pro-Tetrapeptide or One of Its Analogues as Agent for Slowing Down Loss of Hair and/or Stimulating Hair Growth” (CENTRE NATIONAL DE LA RECHERCHE SCIENTIFQUE (CNRS, priority 2005, published 2009).
Residues, ends and D or L forms follow the SMILES beside them.

Columns and labels:
[1] = test system: isolated human hair explants (hair follicles); test: Growth (length) of isolated human hairs maintained in ex vivo survival; type: cell-based
Method: (§1) Study of the stimulating activity of tetrapeptide AcSDKP on the growth of isolated hairs maintained in a state of ex vivo survival. This study was conducted on 66 human hair explants obtained from scalp-plasty.
(§2) Hairs comprised of hair follicles were isolated by micro dissection and individually placed in wells (96-well culture plate) and maintained in survival for 15 days under conventional tissue culturing conditions (37° C., 5% CO2) in Williams medium.
(§3) Tetrapeptide AcSDKP added to the culture medium was tested at three concentrations: 10^−4 M, 10^−7 M and 10^−10 M. Minoxidil® (2,4-diamino 6-piperidinopyrimidine 3-oxide) at a concentration of 10^−5 M was used as a positive control.
(§4) Culture mediums containing the compounds to be tested were renewed every three days.
Hairs were photographed using a microscope and a CCD camera coupled to acquisition software and archiving.
Each hair was measured on D0, D3, D6, D8, D10, D13 and D15 using a LEICA IM1000 measurement module to give measurements in μm.
Each hair was photographed and its length evaluated using software giving values in μm.

[2] = test system: cells in mitosis (Ki67) in the epithelial sheath of hair; test: Cell proliferation: anti-Ki67 immunolabeling of cells in mitosis along the epithelial sheath of isolated hairs; type: cell-based, human
Method: as §1, §2, §3, §4
(§5) On D8 and D15 of treatment, six hairs from each batch (untreated control, Minoxidil®, +AcSDKP 10^−4 M, +AcSDKP 10^−7 M, +AcSDKP 10^−10 M) were removed and prepared for histological study.
(§6) Three explants from each batch were fixed in ordinary Bouin and the three other hairs were frozen and stored at −80° C.
(§7) In addition to measurements of the length of each hair, the general morphology of each hair was analysed and the expression of laminin 5 and collagen IV, two constituents of the basal membrane, was evaluated. Moreover, immunolabeling with anti-Ki67 antibodies (nuclear protein expressed in growing cells) was carried out of cells in mitosis in order to establish the mitotic index of follicle structures.
This study was conducted on cuts of frozen hairs.

[3] = test system: neo-keratinocytes / epithelial sheaths of isolated hairs; test: General morphology of histological cuts of isolated hairs (Masson Trichromium): neo-keratinocytes, epithelial sheaths; type: cell-based, human
Method: as §1, §2, §3, §4, §5, §6, §7
Analysis of the general morphology of histological cuts stained with Masson Trichromium focusing on the area between the opening of the sebaceous glands and the hair bulb.
Hairs cultured on D0 naturally undergo changes during survival as is observed after an in vivo graft. The restructuring effect of AcSDKP was visualised through the appearance of neo-keratinocytes along the conjunctival sheath which migrate from the bulge and to a lesser extent from the bulb, two regions where stem cells are found. […] This effect leads to clear appearance of neo-keratinocytes along the length of the hair, from the epidermis to the bulb. The structure of the neo-keratinocytes formed in this way is uniform and stratified. It varies as a function of treatment time and AcSDKP concentration. The clearest activity was found on D15 of treatment with AcSDKP at 10^−10 M.

collagen IV = test: Immunolabeling of basal membrane collagen (type IV) on frozen cuts of isolated hairs; type: cell-based, human
Method: as §1, §2, §3, §4, §5, §6, §7
Immunolabeling of type IV collagen was carried out on frozen cuts of the control hairs and hairs treated with AcSDKP or Minoxidil® in order to quantify this constituent of the basal membrane which separates the dermal compartment from the epithelial compartment.

laminin 5 = test: Immunolabelling of laminin 5 in isolated hairs; type: cell-based, human
Method: Study of the stimulating activity of tetrapeptide AcSDKP on the growth of isolated hairs maintained in a state of ex vivo survival. This study was conducted on 66 human hair explants obtained from scalp-plasty. Hairs comprised of hair follicles were isolated by micro dissection and individually placed in wells (96-well culture plate) and maintained in survival for 15 days under conventional tissue culturing conditions (37° C., 5% CO2) in Williams medium. Tetrapeptide AcSDKP added to the culture medium was tested at three concentrations: 10^−4 M, 10^−7 M and 10^−10 M. Minoxidil® (2,4-diamino 6-piperidinopyrimidine 3-oxide) at a concentration of 10^−5 M was used as a positive control. Culture mediums containing the compounds to be tested were renewed every three days. On D8 and D15 of treatment, six hairs from each batch (untreated control, Minoxidil®, +AcSDKP 10^−4 M, +AcSDKP 10^−7 M, +AcSDKP 10^−10 M) were removed and prepared for histological study. Three explants from each batch were fixed in ordinary Bouin and the three other hairs were frozen and stored at −80° C. In addition to measurements of the length of each hair, the general morphology of each hair was analysed and the expression of laminin 5 and collagen IV, two constituents of the basal membrane, was evaluated. […]

keratin 19 (CK19) = test: Immunolabeling of keratin 19 (CK19), epithelial stem cell marker, on frozen cuts of isolated hairs; type: cell-based, human
Method: as §1, §2, §3, §4, §5, §6
Immunolabeling of keratin 19 (CK19) was carried out on frozen cuts of control hairs and hairs treated with AcSDKP or Minoxidil® in order to evaluate the proportion of undifferentiated primitive cells (or even stem cells) present in the external epithelial sheaths of the hair follicles. […]

Compound	Hair growth (length of hair) ([1]; 10^−10 M in culture medium, D15 of treatment)	Hair growth (length of hair shafts) ([1]; higher concentrations (10^−4 M, 10^−7 M), D15)	Increase in number of cells in mitosis compared to control hair ([2]; 10^−10 M, D8 of treatment)	Average number of cells in mitosis per mm of hair ([2]; AcSDKP 10^−7 M, D8)	Number of cells in mitosis in treated hair compared to control hair ([2]; three concentrations tested (10^−4 M, 10^−7 M, 10^−10 M))	Restructuring of the epithelial sheaths ([3]; AcSDKP in the culture medium, as of D8 of treatment)	Adherence of epithelial sheaths to collagen ([3]; D8, AcSDKP 10^−4 M)	Neo-keratinocyte sites ([3]; D8, AcSDKP 10^−4 M)	Adherence of epithelium to the underlying collagen ([3]; D8, the two active concentrations (10^−7 M and 10^−10 M))	Neo-keratinocyte structure thickness ([3]; D15, AcSDKP 10^−4 M, 10^−7 M and especially 10^−10 M)	Increase in collagen IV levels (collagen IV; D8 and D15, AcSDKP 10^−10 M)	Collagen IV expression in the bulb and median section of hair (collagen IV; as of D8, AcSDKP at the three concentrations tested)	Laminin 5 increase in the median zone of hair (laminin 5; D8, AcSDKP 10^−10 M)	Expression of laminin 5 (laminin 5; D15, AcSDKP 10^−7 M)	Increase in CK19 levels (keratin 19 (CK19); D8 and D15, AcSDKP 10^−10 M)	Expression of CK19 compared to control hair and Minoxidil-treated hair (keratin 19 (CK19); hair kept in survival in presence of the tetrapeptide)	Adherence of epithelial sheaths to collagen ([3]; D8, Minoxidil)	Neo-keratinocyte sites ([3]; D8, Minoxidil 10 μM)	Neo-keratinocyte structure compared to untreated hair ([3]; D15, Minoxidil 10^−5 M)	Collagen IV expression (collagen IV; hair treated with Minoxidil)
CC(=O)N[C@@H](CO)C(=O)N[C@@H](CC(=O)O)C(=O)N[C@@H](CCCCN)C(=O)N1CCC[C@H]1C(=O)O [AcSDKP, CH3CO-Ser-Asp-Lys-Pro-OH] (Ac-SDKP-OH)	significantly stimulates hair growth	no significant difference	+300%	34 per mm of hair	significantly increases the number of cells in mitosis	leads to restructuring of the epithelial sheaths	more or less detached	absent	adheres fully	increasingly thicker	all the more marked	very clear increase in collagen IV	considerably more marked	higher	maximal	significantly greater	–	–	–	–
Nc1cc(N2CCCCC2)nc(N)[n+]1[O-] [Minoxidil ®, 2,4-diamino 6-piperidinopyrimidine 3-oxide, reference compound]	–	–	–	–	–	–	–	–	–	–	–	–	–	–	–	–	more or less detached	absent	slightly more structured	often less evident
